Data set [1] addresses T1, eIF2B(αβγδε)2 decamer (Homo sapiens, UniProt P49770+Q9UI10).
T1 construct: gene EIF2B2; recombinant human eIF2Bα2 (pJT075) mixed with eIF2Bβγδε (pJT073 + pJT074 coexpression); heterodecamer; 2,369 unique amino acids; with Translation initiation factor eIF2B subunit alpha; Translation initiation factor eIF2B subunit gamma; Translation initiation factor eIF2B subunit epsilon
Description: hydrogen-deuterium exchange mass spectrometry. In kind it is binding. The note with it: 20 mM HEPES, 200 mM KCl, 5 mM MgCl2, 1 mM TCEP, pH 7.9; ISRIB pocket, groove between eIF2Bβ and eIF2Bδ'; allosteric.

Data set [2] concerns the target T2, eIF2B(αβγδε)2 decamer (Homo sapiens, UniProt P49770+Q9UI10, Q9UI10:L516A).
T2 construct: gene EIF2B2; recombinant human eIF2Bα2 (pJT075) mixed with eIF2Bβγδε (pJT073 + pJT074 coexpression); heterodecamer; 2,369 unique amino acids; with Translation initiation factor eIF2B subunit alpha; Translation initiation factor eIF2B subunit gamma; Translation initiation factor eIF2B subunit epsilon
Description: fluorescence polarization, eIF2B titration. The format is binding. The note with it: labelled compound; 2.5 nM FAM-ISRIB; 20 mM HEPES-KOH pH 7.5, 100 mM KCl, 5 mM MgCl2, 1 mM TCEP; 25 °C; ISRIB pocket; read-out: half-maximal effective concentration.

Data set [3] has as its target T3, eIF2B(αβγδε)2 decamer (Homo sapiens, UniProt P49770+Q9UI10, Q9UI10:F443A).
T3 construct: gene EIF2B2; recombinant human eIF2Bα2 (pJT075) mixed with eIF2Bβγδε (pJT073 + pJT074 coexpression); heterodecamer; 2,369 unique amino acids; with Translation initiation factor eIF2B subunit alpha; Translation initiation factor eIF2B subunit gamma; Translation initiation factor eIF2B subunit epsilon
Description: fluorescence polarization, eIF2B titration. In kind it is binding. The following applies: labelled compound; 2.5 nM FAM-ISRIB; 20 mM HEPES-KOH pH 7.5, 100 mM KCl, 5 mM MgCl2, 1 mM TCEP; 25 °C; ISRIB pocket; read-out: half-maximal effective concentration.

Data set [4] deals with T1, eIF2B(αβγδε)2 decamer. Description: fluorescence polarization, eIF2B titration. In kind it is binding. The following applies: labelled compound; 2.5 nM FAM-ISRIB; 20 mM HEPES-KOH pH 7.5, 100 mM KCl, 5 mM MgCl2, 1 mM TCEP; 25 °C; ISRIB pocket; read-out: half-maximal effective concentration.
The target in data set [5] is T4, eIF2B(αβγδε)2 decamer (Homo sapiens, UniProt P49770+Q9UI10, Q9UI10:E445A).
T4 construct: gene EIF2B2; recombinant human eIF2Bα2 (pJT075) mixed with eIF2Bβγδε (pJT073 + pJT074 coexpression); heterodecamer; 2,369 unique amino acids; with Translation initiation factor eIF2B subunit alpha; Translation initiation factor eIF2B subunit gamma; Translation initiation factor eIF2B subunit epsilon
Description: fluorescence polarization, eIF2B titration. The note with it: labelled compound; 2.5 nM FAM-ISRIB; 20 mM HEPES-KOH pH 7.5, 100 mM KCl, 5 mM MgCl2, 1 mM TCEP; 25 °C; ISRIB pocket; read-out: half-maximal effective concentration. In kind it is binding.

The target in another data set is eIF2Bβγδ^E445Aε tetramer (human, UniProt P49770 2-351; Q9NR50 1-452; Q9UI10 1-523; Q13144 1-721, δE445A). Description: AUC; sedimentation velocity, 40,000 r.p.m., 20 °C, 20 mM HEPES-KOH pH 7.5, 150 mM KCl, 1 mM TCEP, 5 mM MgCl2; tetramer mixed with eIF2Bα2 (2:1 or 1:1 tetramer:dimer); continuous c(S) distribution. The following applies: both partners purified.
The next data set deals with eIF2Bβγδ^F443Aε tetramer (human, UniProt P49770 2-351; Q9NR50 1-452; Q9UI10 1-523; Q13144 1-721, δF443A). Described as above. The note with it: both partners purified.
Data set [6] concerns the molecule itself. Description: cryo-EM structure; 20 µM eIF2Bδ^L516A βγδε incubated with 11 µM eIF2Bα2 in 20 mM HEPES-KOH, 200 mM KCl, 5 mM MgCl2, 1 mM TCEP; diluted to 750 nM for grids.

As to `O=C(COc1ccc(Cl)c(F)c1)NC12CC(NC(=O)c3cnc(C(F)F)cn3)(C1)C2` [2BAct], at eIF2B(αβγδε)2 decamer [1], the “hydrogen-deuterium exchange mass spectrometry” value is “We also observed protection in peptides at the 2BAct binding site”.

In the case of FAM-ISRIB, the EC50 on eIF2B(αβγδε)2 decamer [2] amounted to 169 ± 34 nM; on eIF2B(αβγδε)2 decamer [3], 50 ± 8 nM; on eIF2B(αβγδε)2 decamer [4], 38 ± 2 nM; at eIF2B(αβγδε)2 decamer [5], 30 ± 2 nM.

B1: eIF2Bα2 dimer, wild type (complex, human)
chain: DDKELIEYFKSQMKEDPDMASAVAAIRTLLEFLKRDKGETIQGLRANLTSAIETLCGVDSSVAVSSGGELFLRFISLASLEYSDYSKCKKIMIERGELFLRRISLSRNKIADLCHTFIKDGATILTHAYSRVVLRVLEAAVAAKKRFSVYVTESQPDLSGKKMAKALCHLNVPVTVVLDAAVGYIMEKADLVIVGAEGVVENGGIINKIGTNQMAVCAKAQNKPFYVVAESFKFVRLFPLNQQDVPDKFKYKADTLKVAQTGQDLKEEHPWVDYTAPSLITLLFTDLGVLTPSAVSDELIKLYL
notes: also called eIFBα2
As to B1, the binding result (with eIF2Bβγδ^E445Aε tetramer; with eIF2Bβγδ^F443Aε tetramer; in data set [6]) was “binds” in each case.

Values taken from PMC10972756, “A helical fulcrum in eIF2B coordinates allosteric regulation of stress signaling” (Nature Chemical Biology, 2023).
